In the supplement of paper PMC11208160:

assay: recombinant UMI read abundance after kanamycin selection (control-corrected) (log10(CPM+1)); higher = more efficient recombination; extreme values may be limits of the assay; sequences stand for … in AGTGCAGAGAAAATCGGCCAGTTTTCTCTGCCTGCAGTCCGCATGCCGTGGGACCCCTTGGGTTCTAACCTGTTGCCTAGATTTATGCAGCGGACTGCCTTTCTCCCAAAGTGATAAACCGG…AGGTTGGTTTCACT; site = the 11-nt donor
Procedure, shortened: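 The measure is log10(CPM+1) for recombinant UMIs. These were PCR-amplified across the donor–target junction and sequenced after Escherichia coli carrying a donor and donor-binding-loop pair library and a target plasmid with T7-inducible IS621 bridge recombinase was plated on IPTG (0.07 mM) plus kanamycin or unselected. CPM were averaged over two replicates and scaled by control-derived factors.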
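Further: IS621 bridge recombinase in Escherichia coli cells against a fixed T5 target plasmid.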

Row | Sequence | recombinant UMI read abundance (log10)
1 | GACAGCTCATGGACCGGTTTTCCCGGTAATCCGTATTTGGT (site GACAGCTCTAC) | 1.68
2 | GACAGCTCATGGACCGGTTTTCCCGGTAATCCGTATTTGTC (site GACAGCTCTGA) | 1.15
3 | GACCAGCCATGGACCGGTTTTCCCGGTAATCCGTATTTGTT (site GACCAGCCTAA) | 0
4 | GACCGCTCATGGACCGGTTTTCCCGGTAATCCGTATTTGGC (site GACCGCTCTGC) | 2.43
5 | GACCGGGCATGGACCGGTTTTCCCGGTAATCCGTATTTGAA (site GACCGGGCTTT) | 0.143
6 | GACCGGGCATGGACCGGTTTTCCCGGTAATCCGTATTTGCG (site GACCGGGCTCG) | 0
7 | GACCGTTCATGGACCGGTTTTCCCGGTAATCCGTATTTGCT (site GACCGTTCTAG) | 1.7
8 | GACCTCTCATGGACCGGTTTTCCCGGTAATCCGTATTTGTA (site GACCTCTCTTA) | 2.09
9 | GACCTTTCATGGACCGGTTTTCCCGGTAATCCGTATTTGTT (site GACCTTTCTAA) | 0
10 | GACGACGCATGGACCGGTTTTCCCGGTAATCCGTATTTGTC (site GACGACGCTGA) | 2.6
11 | GACGATTCATGGACCGGTTTTCCCGGTAATCCGTATTTGAT (site GACGATTCTAT) | 2.03
12 | GACGATTCATGGACCGGTTTTCCCGGTAATCCGTATTTGTT (site GAAGATTCTAA) | 0.149
13 | GACGATTCATGGACCGGTTTTCCCGGTAATCCGTATTTGTT (site GACGATTCTAA) | 2.04
14 | GACGATTCATGGACCGGTTTTCCCGGTAATCCGTATTTGTT (site GAGGATTCTAA) | 0
15 | GACGATTCATGGACCGGTTTTCCCGGTAATCCGTATTTGTT (site GATGATTCTAA) | 0.263
16 | GACGGCCCATGGACCGGTTTTCCCGGTAATCCGTATTTGTT (site AACGGCCCTAA) | 0.00882
17 | GACGGCCCATGGACCGGTTTTCCCGGTAATCCGTATTTGTT (site CACGGCCCTAA) | 0.0467
18 | GACGGCCCATGGACCGGTTTTCCCGGTAATCCGTATTTGTT (site GACGGCCCTAA) | 0
19 | GACGGCCCATGGACCGGTTTTCCCGGTAATCCGTATTTGTT (site TACGGCCCTAA) | 0.00762

Row | Sequence | recombinant UMI read abundance (log10)
20 | GACTAACCATGGACCGGTTTTCCCGGTAATCCGTATTTGGT (site GACAAACCTAC) | 0.0462
21 | GACTAACCATGGACCGGTTTTCCCGGTAATCCGTATTTGGT (site GACCAACCTAC) | 0.00701
22 | GACTAACCATGGACCGGTTTTCCCGGTAATCCGTATTTGGT (site GACGAACCTAC) | 0
23 | GACTAACCATGGACCGGTTTTCCCGGTAATCCGTATTTGGT (site GACTAACCTAC) | 0
24 | GACTATTCATGGACCGGTTTTCCCGGTAATCCGTATTTGTA (site GACTATTCTTA) | 1.34
25 | GACTCCTCATGGACCGGTTTTCCCGGTAATCCGTATTTGAA (site GACTCCTCTTT) | 1.75
26 | GACTGATCATGGACCGGTTTTCCCGGTAATCCGTATTTGGC (site GACTGATCTGC) | 2.46
27 | GACTGGACATGGACCGGTTTTCCCGGTAATCCGTATTTGAC (site GAATGGACTGT) | 0
28 | GACTGGACATGGACCGGTTTTCCCGGTAATCCGTATTTGAC (site GACTGGACTGT) | 1.89
29 | GACTGGACATGGACCGGTTTTCCCGGTAATCCGTATTTGAC (site GAGTGGACTGT) | 0.438
30 | GACTGGACATGGACCGGTTTTCCCGGTAATCCGTATTTGAC (site GATTGGACTGT) | 0
31 | GACTGGCCATGGACCGGTTTTCCCGGTAATCCGTATTTGCA (site GAATGGCCTTG) | 0
32 | GACTGGCCATGGACCGGTTTTCCCGGTAATCCGTATTTGCA (site GACTGGCCTTG) | 0
33 | GACTGGCCATGGACCGGTTTTCCCGGTAATCCGTATTTGCA (site GAGTGGCCTTG) | 0
34 | GACTGGCCATGGACCGGTTTTCCCGGTAATCCGTATTTGCA (site GATTGGCCTTG) | 0.0169
35 | GAGAAAACATGGACCGGTTTTCCCGGTAATCCGTATTTGCT (site GAGAAAACTAG) | 1.16
36 | GAGAAAACATGGACCGGTTTTCCCGGTAATCCGTATTTGCT (site GCGAAAACTAG) | 0.0152
37 | GAGAAAACATGGACCGGTTTTCCCGGTAATCCGTATTTGCT (site GGGAAAACTAG) | 0
38 | GAGAAAACATGGACCGGTTTTCCCGGTAATCCGTATTTGCT (site GTGAAAACTAG) | 0

Row | Sequence | recombinant UMI read abundance (log10)
39 | GAGAAATCATGGACCGGTTTTCCCGGTAATCCGTATTTGCG (site GAGAAATCTCG) | 0
40 | GAGAACCCATGGACCGGTTTTCCCGGTAATCCGTATTTGGA (site GAGAACCCTTC) | 0
41 | GAGAAGACATGGACCGGTTTTCCCGGTAATCCGTATTTGAA (site GAGAAGACTTT) | 1.82
42 | GAGAAGCCATGGACCGGTTTTCCCGGTAATCCGTATTTGTC (site GAGAAGCCTGA) | 0
43 | GAGAATACATGGACCGGTTTTCCCGGTAATCCGTATTTGCA (site AAGAATACTTG) | 0
44 | GAGAATACATGGACCGGTTTTCCCGGTAATCCGTATTTGCA (site CAGAATACTTG) | 0.0136
45 | GAGAATACATGGACCGGTTTTCCCGGTAATCCGTATTTGCA (site GAGAATACTTG) | 2.23
46 | GAGAATACATGGACCGGTTTTCCCGGTAATCCGTATTTGCA (site TAGAATACTTG) | 0.944
47 | GAGACGCCATGGACCGGTTTTCCCGGTAATCCGTATTTGCC (site GAGACGCCTGG) | 0
48 | GAGACGGCATGGACCGGTTTTCCCGGTAATCCGTATTTGAG (site GAGACGGCTCT) | 0.892
49 | GAGACTCCATGGACCGGTTTTCCCGGTAATCCGTATTTGTA (site GAGACTCCTTA) | 0.807
50 | GAGCACACATGGACCGGTTTTCCCGGTAATCCGTATTTGGA (site GAGCACACTTC) | 0.594
51 | GAGCCTTCATGGACCGGTTTTCCCGGTAATCCGTATTTGGT (site AAGCCTTCTAC) | 0.678
52 | GAGCCTTCATGGACCGGTTTTCCCGGTAATCCGTATTTGGT (site CAGCCTTCTAC) | 0.79
53 | GAGCCTTCATGGACCGGTTTTCCCGGTAATCCGTATTTGGT (site GAGCCTTCTAC) | 0.859
54 | GAGCCTTCATGGACCGGTTTTCCCGGTAATCCGTATTTGGT (site TAGCCTTCTAC) | 0.0029
55 | GAGCGAGCATGGACCGGTTTTCCCGGTAATCCGTATTTGTA (site GAGCGAGCTTA) | 2.57
56 | GAGCTCACATGGACCGGTTTTCCCGGTAATCCGTATTTGAC (site GAGCTCACTAT) | 1
57 | GAGCTCACATGGACCGGTTTTCCCGGTAATCCGTATTTGAC (site GAGCTCACTCT) | 0.476
